Measured values reported in patent US5684028A, “Sulphorous derivatives of imidazole, their preparation process, the new intermediates obtained, their use as medicaments and the pharmaceutical compositions” (Roussel UCLAF, priority 1990, dated 1997).
pIC50: −log10 of the molar value.

Columns and labels:
[1] = test system: angiotensin II (response of the isolated portal vein); test: Antagonistic activity of angiotensin II on the isolated portal vein; details: portal vein of male Wistar rats; angiotensin II 3.10^-8 M; compound 15 minutes before; 37° C.; verapamil 1.10^-6 M; read-out: IC50 (dose which produces a 50% inhibition of the response to angiotensin)
Procedure: The portal vein of male Wistar rats (about 350 g) (IFFA Credo France) is removed after cervical dislocation and placed rapidly in a physiological solution (see below) at ambient temperature. A ring of about 1 mm is mounted in a bath with an isolation mechanism, containing 20 ml of the following physiological solution (composition in mM: NaCl 118.3 - KCl 4.7 - MgSO4 1.2 - KH2 PO4 1.2 - NaHCO3 25 - glucose 11.1 - CaCl2 2.5), the medium is maintained at 37° C. and oxygenated with an oxygen (95%), carbon dioxide (5%) mixture. The initial pressure imposed is 1 g, the rings are left at rest for 60 to 90 minutes. In order to avoid spontaneous contractions, verapamil is added to the incubation bath (1.10^-6 M).
At the end of the rest period angiotensin II (Ciba hypertensin) 3.10^-8 M is added to the incubation bath and left in contact with the preparation for one minute. This operation is repeated every 30 minutes, the tissue being washed 3 or 4 times between two stimulations by angiotensin. The compound to be studied is introduced into the bath 15 minutes before a new stimulation by angiotensin. Increasing concentrations of the product to be studied are used and the IC50 (dose which produces a 50% inhibition of the response to angiotensin) of the product to be studied is calculated, this is expressed in nanomoles.

[2] = test system: angiotensin II (pressure effects); test: Test for antagonistic activity of angiotensin II in a demedullated rat; format: in vivo; details: iv, demedullated male Sprague-Dawley rats, jugular vein injection 5 minutes before angiotensin II (0.75 micrograms/kg), diastolic arterial pressure, read-out: IC50 (dose which inhibits by 50% the pressure effects of angiotensin II)
Procedure: 3 - Test for antagonistic activity of angiotensin II in a demedullated rat
Male Sprague-Dawley rats (250 to 350 g) are anaesthetized by an intra-peritoneal injection of sodium pentobarbital (60 mg/kg). The diastolic arterial pressure is recorded by means of a heparinized catheter (PE50) introduced into the left carotid of the animal, and connected to a pressure calculator (Gould, Pressure Processor) by means of a Gould pressure sensor,
A catheter is introduced into the right jugular vein of the animal in order to allow the injection of the molecules to be studied.
The animal is placed under assisted respiration. A bilateral section of the pneumogastric nerves is carried out. The rat is then demedullated.
After a suitable period of stabilization, the study of the antagonism of the molecules vis- -vis angiotensin II (CIBA Hypertensin) is approached in the following manner:
1 - Three consecutive injections of angiotensin II (0.75 micrograms/kg) spaced 15 minutes apart permits a reproducible and stable pressure response to be obtained.
2 - While keeping a time interval of 15 minutes for the administration of angiotensin II, the molecules (0.01 to 10 mg/kg) are injected 5 minutes before the angiotensin II.
The pressure effects of angiotensin II in the presence of the antagonist are expressed as a percentage of the pressure effects of angiotensin II administered on its own. The dose which inhibits the studied effect by 50% is thus determined.
Each animal is considered to be its own control.

angiotensin II receptor = target: T1, angiotensin II receptor (Rattus norvegicus, UniProt P25095); test: Test on the angiotensin II receptor (displacement of I^125 angiotensin II, rat liver membranes); format: binding; details: 25° C., 150 minutes, read-out: IC50 (50% inhibiting concentration, displacement of specific radioactivity fixed on the receptor)
T1 construct: A fresh membrane preparation obtained from the liver of a rat is used; from tissue; host or cells: rat liver, fresh membrane preparation
T1 sequence (P25095 1-359): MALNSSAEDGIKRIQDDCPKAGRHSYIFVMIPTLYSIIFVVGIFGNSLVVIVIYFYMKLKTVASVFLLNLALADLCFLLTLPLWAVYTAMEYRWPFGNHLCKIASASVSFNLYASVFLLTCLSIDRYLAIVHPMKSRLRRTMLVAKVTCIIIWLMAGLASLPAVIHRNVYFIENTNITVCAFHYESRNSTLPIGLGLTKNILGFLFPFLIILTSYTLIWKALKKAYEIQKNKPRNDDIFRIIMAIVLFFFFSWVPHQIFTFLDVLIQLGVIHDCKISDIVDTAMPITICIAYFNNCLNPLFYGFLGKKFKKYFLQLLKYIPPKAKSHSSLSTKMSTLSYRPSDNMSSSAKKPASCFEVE
Procedure: 1 - Test on the angiotensin II receptor
A fresh membrane preparation obtained from the liver of a rat is used. The tissue is ground up in a polytron in a Tris 50 mM buffer pH 7.4, the grinding is followed by 3 centrifugations at 30,000 g for 15 minutes, the deposits being taken up in between in the Tris buffer pH 7.4.
The last deposits are put in suspension in an incubation buffer (Tris 20 mM, NaCl 135 mM, […], KCl 10 mM, glucose 5 mM, MgCl2 10 mM PMSF 0.3 mM, bacitracin 0.1 mM, BSA 0.2%).
Aliquoted fractions of 2 ml are divided into hemolysis tubes and I^125 angiotensin II (25,000 DPM per tube) and the product to be studied are added. (The product is first tested at 3×10^-5 M three times). When the tested product displaces by more than 50% the radioactivity linked specifically to the receptor, it is tested again according to a range of 7 doses in order to determine the dose which inhibits by 50% the radioactivity linked specifically to the receptor. In this way the 50% inhibiting concentration is determined.
The non-specific bond is determined by addition of the product of Example 94 of the European Patent 0,253,310, at 10^-5 M (three times). The medium is incubated at 25° C. for 150 minutes, put in a water bath at 0° C. for 5 minutes, filtered under vacuum, rinsed with Tris buffer pH 7.4 and the radioactivity is counted in the presence of scintillating Triton.
The result is expressed directly as the 50% inhibiting concentration (IC50), that is as the concentration of studied product, expressed in nM, necessary to displace 50% of the specific radioactivity fixed on the receptor studied.

| SMILES | pIC50 [1] | ED50 [2] [mg/kg] | pIC50 (angiotensin II receptor) |
| --- | --- | --- | --- |
| CCCCc1nc(SCC)c(CO)n1Cc1ccc(-c2ccccc2C(=O)O)cc1 [Example 14, 4'-[[2-butyl-4-(ethylthio)-5-(hydroxymethyl)-1H-imidazol-1-yl]-methyl]-(1,1'-biphenyl)-2-carboxylic acid] | 8.00 | 0.78 |  |
| CCCCc1nc([S+]([O-])c2ccccc2)c(C(=O)O)n1Cc1ccc(-c2ccccc2C(=O)O)cc1 (stereo not drawn) [Example 28, 2-butyl-1-[[2'-carboxy-(1,1'-biphenyl)-4-yl]-methyl]-4-(phenylsulphinyl)-1H-imidazole-5-carboxylic acid] |  |  | 7.99 |
| CCCCc1nc(S(=O)(=O)c2ccccc2)c(C(=O)O)n1Cc1ccc(-c2ccccc2C(=O)O)cc1 [Example 26, 2-butyl-1-[[2'-carboxy-(1,1'-biphenyl)-4-yl]-methyl]-4-(phenylsulphonyl)-1H-imidazole-5-carboxylic acid] |  |  | 7.33 |
| CCCCc1nc(Sc2ccccc2)c(C(=O)O)n1Cc1ccc(-c2ccccc2C(=O)O)cc1 [Example 20, 2-butyl-1-[[2'-carboxy-(1,1'-biphenyl)-4-yl]-methyl]-4-(phenylthio)-1H-imidazole-5-carboxylic acid] | 8.30 |  | 7.77 |
| CCCCc1nc(SCc2ccccc2)c(C(=O)O)n1Cc1ccc(-c2ccccc2C(=O)O)cc1 [Example 48, 2-butyl-1-[[2'-carboxy-(1,1'-biphenyl)-4-yl]-methyl]-4-[(phenylmethyl)-thio]-1H-imidazole-5-carboxylic acid] | 9.05 |  | 8.24 |
| CCCCc1nc(SCc2ccccc2)c(CO)n1Cc1ccc(-c2ccccc2C(=O)O)cc1 [Example 74] | 8.70 | 0.34 | 8.24 |
| CCCCc1nc(SC)c(C(=O)O)n1Cc1ccc(-c2ccccc2-c2nnn[nH]2)cc1 [Example 51, 2-butyl-4-(methylthio)-1-[[2'-(1H-tetrazol-5-yl)-(1,1'-biphenyl)-4-yl]-methyl]-1H-imidazole-5-carboxylic acid] | 9.85 | 0.054 | 8.72 |
| CCCCc1nc(Sc2ccccc2)c(C(=O)O)n1Cc1ccc(-c2ccccc2-c2nn[nH]n2)cc1 [Example 92] |  | 0.08 | 9.30 |
| CCCCc1nc([S+]([O-])CC)c(C(=O)O)n1Cc1ccc(-c2ccccc2C(=O)O)cc1 (stereo not drawn) [Example 16, 2-butyl-1-[[2'-carboxy-(1,1'-biphenyl)-4-yl]-methyl]-4-(ethylsulphinyl)-1H-imidazole-5-carboxylic acid] |  | 0.29 |  |
| CCCCc1nc(S(C)(=O)=O)c(C(=O)O)n1Cc1ccc(-c2ccccc2-c2nn[nH]n2)cc1 [Example 83] | 9.68 | 0.022 | 8.89 |
| CCCCc1nc(SC)c(C(=O)OCOC(=O)C(C)(C)C)n1Cc1ccc(-c2ccccc2-c2nn[nH]n2)cc1 [Example 106] |  | 0.04 |  |
| CCCCc1nc(S(C)(=O)=O)c(C(=O)O)n1Cc1ccc(-c2ccccc2-c2nn[nH]n2)cc1 [Example 84] |  |  | 9.10 |
| CCCCc1nc(S(=O)(=O)CC)c(C(=O)O)n1Cc1ccc(-c2ccccc2C(=O)O)cc1 [Example 18, 2-butyl-1-[[2'-carboxy-(1,1'-biphenyl)-4-yl]-methyl]-4-(ethylsulphonyl)-1H-imidazole-5-carboxylic acid] |  | 0.79 |  |
| CCCCc1nc(SCc2ccc(OC)cc2)c(C(=O)O)n1Cc1ccc(-c2ccccc2C(=O)O)cc1 [Example 70] | 9.25 | 0.33 | 8.44 |
| CCCCc1nc(SC)c(C(=O)O)n1Cc1ccc(-c2ccccc2C(=O)O)cc1 [Example 22, 2-butyl-1-[[2'-carboxy-(1,1'-biphenyl)-4-yl]-methyl]-4-(methylthio)-1H-imidazole-5-carboxylic acid] | 8.10 | 0.47 | 7.31 |
| CCCCc1nc(SCC)c(C(=O)O)n1Cc1ccc(-c2ccccc2C(=O)O)cc1 [Example 6, 2-butyl-1-[[2'-carboxy-(1,1'-biphenyl)-4-yl]-methyl]-4-(ethylthio)-1H-imidazole-5-carboxylic acid] | 7.89 |  |  |
